Measurements as given in US10143666B2, “Small molecule inhibitors targeting CAG-repeat RNA toxicity in polyglutamine diseases” (The Chinese University of Hong Kong, priority 2015, dated 2018).

Columns and labels:
[1] = test system: EGFPCAG78 RNA expressing SK-N-MC cells; test: LDH cytotoxicity assay, EGFPCAG78 RNA expressing SK-N-MC cells; assay type: cell-based, human
Experimental: It was next investigated whether DB213 could mitigate expanded CAG-repeat RNA-mediated toxicity in SK-N-MC human neuronal cell. […] Taken together, DB213 could suppress the expanded CAG RNA-mediated but not polyQ protein-mediate toxicity in human neuronal cell.
SK-N-MC human neuronal cells were seeded on a 24-well plate and lactate dehydrogenase enzyme activity in the cell culture medium was measured 72 hours post-transfection and drugs treatment using the Cytotox 96 non-radioactive cytotoxicity assay (Promega).

[2] = test system: CTG480 fly; test: Neurodegeneration in CTG480 fly (Myotonic dystrophy 1 model); assay type: in vivo, Drosophila
Experimental: (§1) Other disease fly models, including α-synuclein (Parkinson's disease)^13, CTG480 (Myotonic dystrophy 1)^14 and CGG90 (Fragile X syndrome)^15 were employed to address the specificity of DB213 on trinucleotide repeat expansion RNA toxicity.
(§2) Flies were raised at 21.5° C. on cornmeal medium supplemented with dry yeast. Pseudopupil assay was performed on 12 day-old adult flies as mentioned previously^18. Images were captured by SPOT Insight CCD camera controlled by the SPOT Advanced software (Diagnostic instruments Inc.). External eye assay was performed on 12 day-old adult flies by Olympus SZX-12 stereomicroscope. Eye images were captured using a SPOT Insight CCD camera (Diagnostic instruments Inc.).

[3] = target: r(CAG)7 RNA; test: Isothermal titration calorimetry (ITC) binding assay; conditions: 25° C., DB213 800 μM titrated to r(CAG)7 RNA 40 μM, one binding site model
Experimental: It was next investigated that whether DB213 would interact physically with CAG-repeat RNA and sequestrate the toxic RNA species from their pathogenic pathway. Isothermal titration calorimetry (ITC)^17 was adopted to identify the RNA-binding property of DB213.
Experiments were carried out using a MicroCal iTC200 isothermal titration calorimeter (GE Healthcare) at 25° C. Data were analyzed using the Origin® scientific plotting software version 7 (Microcal Software Inc.). DB213 (800 μM) was titrated to synthesized r(CAG)7 RNA (40 μM). The thermal titration data were fitted to the ‘one binding site model’ to determine the dissociation constant (KD).

[4] = test system: α-synuclein fly; test: Neurodegeneration in α-synuclein fly (Parkinson's disease model); assay type: in vivo, Drosophila
Experimental: as §1, §2

CN(C)CCCNC(=N)c1ccc(C(=N)NCCCN(C)C)cc1.Cl.Cl.Cl.Cl [DB213]
Cell death induced by EGFPCAG78 RNA (LDH assay) ([1]; 72 hours post-transfection and treatment): could be suppressed
IC50 ([1]; read-out: IC50, inhibition of cell death induced by EGFPCAG78 RNA (LDH enzyme activity reduced by 50%)): 6.9 ± 1.8 nM
Suppression of neurodegeneration [2]: did not suppress the neurodegeneration
Kd [3]: 1530 ± 250 nM
Suppression of neurodegeneration [4]: did not suppress the neurodegeneration
